# In US20080274096A1, “Fusion Proteins Having a Modulated Half-Life in Plasma” (ASTRAZENECA AB, priority 2005, published 2008):
# What was measured:
# Type in all cases: biochemical
# [1] = molecular target: T1, Human recombinant Neprilysin (Homo sapiens, UniProt P08473); assay: Inhibition of Neprilysin degradation of amyloid β1-40 peptide in buffer; set-up: Degradation of Amyloid β Peptide by Soluble Neprilysin; purchased R&D Systems; conditions: 10 microM Phosphoramidone; Neprilysin 1.8 μg/ml; 3 hours, 37° C.
# T1 sequence (P08473 52-750 limits assumed): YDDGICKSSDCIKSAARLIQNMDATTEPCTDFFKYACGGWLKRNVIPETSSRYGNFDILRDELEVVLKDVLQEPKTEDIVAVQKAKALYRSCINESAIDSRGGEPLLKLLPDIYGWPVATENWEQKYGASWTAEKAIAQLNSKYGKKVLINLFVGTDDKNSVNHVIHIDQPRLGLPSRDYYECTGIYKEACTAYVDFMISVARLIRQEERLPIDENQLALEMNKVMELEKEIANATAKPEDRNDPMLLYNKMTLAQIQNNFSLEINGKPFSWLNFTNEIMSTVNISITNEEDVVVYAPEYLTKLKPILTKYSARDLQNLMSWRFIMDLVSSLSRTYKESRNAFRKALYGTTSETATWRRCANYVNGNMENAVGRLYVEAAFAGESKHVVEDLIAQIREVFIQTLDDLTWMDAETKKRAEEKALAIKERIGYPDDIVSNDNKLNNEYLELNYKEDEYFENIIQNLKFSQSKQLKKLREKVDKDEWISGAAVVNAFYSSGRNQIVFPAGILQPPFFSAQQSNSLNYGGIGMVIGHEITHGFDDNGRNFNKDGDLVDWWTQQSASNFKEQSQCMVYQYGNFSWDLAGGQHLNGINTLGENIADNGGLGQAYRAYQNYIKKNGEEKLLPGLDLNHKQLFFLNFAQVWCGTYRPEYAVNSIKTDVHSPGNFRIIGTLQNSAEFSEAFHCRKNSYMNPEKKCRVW
# Description: The assay is measuring the remaining amyloid β1-40 peptide (Bachem) concentration following its incubation in the presence of Neprilysin (R&D Systems) with or without Neprilysin inhibitor. 100 μl of reaction mixture containing of amyloid β1-40 peptide (final concentration 1 or 10 μM) and/or Neprilysin (1.8 μg/ml), and/or Phosphoramidone (10 μM) was incubated in a round bottom 96-well polypropylene plate at 37° C. for 3 hours. Following incubation, 50 μl of antibodies solution containing anti-Aβ40 (final concentration 0.125 μg/ml; Biosource) and Biotinylated 6E10 (final concentration 0.125 μg/ml; Signet) antibodies was added to each well. Plate was incubated at RT for 3 h. Following incubation, 50 μl of detection mixture of Dynabeads M280 (Dynal Biotech ASA) and secondary antibody Ru-GαR (final concentration 0.132 μg/ml) was added to all wells. Plate was incubated on a shaker at RT for 1 h and results were recorded on IGEN/Bio Veris M8 analyser. Amyloid β1-40 peptide degradation by Neprilysin was calculated as a percentage of Amyloid β1-40 peptide left after incubation in the presence of Neprilysin compared to the amyloid β1-40 peptide concentration in the absence of Neprilysin.
# [2] = molecular target: T1, Human recombinant Neprilysin; assay: Inhibition of added Neprilysin degradation of Aβ40 in guinea pig plasma; set-up: purchased R&D Systems; host or cells: enzyme added to pooled heparinized guinea pig plasma; conditions: 10 microM Phosphoramidon
# Description: Blood was withdrawn from anaesthetized guinea pigs by heart puncture. The blood were collected into prechilled heparin-plasma tubes and centrifuged for 10 min at 4° C. at 3000×g within 20 minutes of sampling. Plasma samples were transferred to pre-chilled polypropylene tubes and immediately frozen on dry ice and stored at −70° C. prior to use. The experiments were performed on a pool of plasma from 5-6 guinea pigs.
# Human recombinant Neprilysin in a buffer containing 25 mM Tris and 100 mM NaCl pH 8 (R&D Systems) or buffer only (i.e. vehicle) was incubated with guinea pig plasma at 37° C. for 0-360 minutes in presence or absents of 10 microM phosphoramidon (Biomol). A final concentration of 4.7 mM EDTA was added into the tubes before the amount of Aβ1-40 or Aβ1-42 was analyzed by using commercial ELISA kits obtained from Biosource (Aβ1-40) or Innogenetics (Aβ1-42).
# amyloid β peptide = assay: Two-compartment membrane experiment, degradation of amyloid β peptide; conditions: degradation in one compartment connected through a membrane
# Description: An experiment is performed to investigate the possibility to remove amyloid β peptide from one compartment by degradation in another compartment connected through a membrane. A similar experiment was conducted using an antibody as an amyloid β peptide agent. The experiment is described by DeMattos et al., (PNAS, 2001). By degrading the amyloid β peptide with neprilysin and/or NEP-Fc in one compartment the concentration of amyloid β peptide in the other compartment is decreased. Importantly, neprilysin or NEP-Fc cannot cross the membrane due to its high molecular weight (161.000 Da and 211.000 Da, respectively).
Compound,Neprilysin activity (Aβ1-40 degradation) in the presence of inhibitor [1],Degradation of Aβ40 by added Neprilysin in the presence of inhibitor [2],Concentration of amyloid β peptide in the other compartment (amyloid β peptide)
CC(C)C[C@H](NP(=O)(O)O[C@@H]1O[C@@H](C)[C@H](O)[C@@H](O)[C@H]1O)C(=O)N[C@@H](Cc1c[nH]c2ccccc12)C(=O)O [Phosphoramidon],completely abolished,inhibited,–
"NEP-Fc: extracellular domain of Neprilysin fused to the IgG4 Fc domain including hinge region, SEQ ID 8",–,–,decreased
